PMC8406319, “The dCache Chemoreceptor TlpA of Helicobacter pylori Binds Multiple Attractant and Antagonistic Ligands via Distinct Sites” (mBio, 2021)
Where a name gives a salt, the structure may show the parent alone.

Experiments:
[1] = tested on: TlpALBD; test: Small-molecule ligand binding array; parameters: species or system Helicobacter pylori SS1; details: ligand binding array screen; n = 3; also: key: + for positive binding; +/− for intermediate binding; − for no binding
Protocol: Small-molecule arrays were prepared and performed as previously described ([57]). Briefly, 1 μg of purified TlpALBD in phosphate-buffered saline (PBS) (pH 7.2) was incubated with a molar concentration ratio (4:2:1) of anti-His antibody (Cell Signaling), followed by incubation with a secondary antibody (Thermo Scientific) for signal amplification. The protein-antibody mix was added to an Arrayit Superepoxy III glass substrate array blocked with PBS (pH 7.2) with 1% bovine serum albumin. […] Unbound protein was washed away with PBS with 0.05% Tween. […] Three biological replicates were performed, with a total of 12 data points for each glycan tested. Binding was classified as positive for a ligand if the relative fluorescence unit value was >1-fold above the mean background (defined as the average background of negative-control spots plus 3 standard deviations [SD]) and was statistically significant (P < 0.005 by Student’s t test). Small-molecule array slide preparation and analysis were done according to MIRAGE guidelines ([58]) (outlined in Table S5).
Classification Guidelines
1. Sample: Glycan Binding Sample
Origin: Helico bact er pyl ori SS1; produce d as a reco mbinant His -tagged protein in E.
The preparation of TlpA is exp lained in the Materials and Methods se ct ion: TlpA co nst ruct desi gn and protein purifica tion.
Sample Sample is a His Tagged protein co ntaining only the periplasm ic rece ptor domain, amino […]
Please see Materials and Methods: Li ga nd bi ndi ng arra y.
Proteins were co mplexe d with mouse anti-his antibody, with se co ndary and tertiary Alexa Fluor555 antibodies (rabbit anti-mouse , goat anti-rabbit) at a molar ratio of 4:2:1.
The protein/antibody co mplex was incu bated on ice for 10 mins prior to placi ng on the Assa y array. Arrays were performed with 1 µg of co mplexe d protein incu bated on the array for protoco l 20 min. Arrays were then wash ed 3 times in Array PBS (PBS + 2 mM MgCl2 + 2 mM CaCl2) then dried by ce ntrifugation for 3 min at 300 x g. Sca nning was performed usi ng an Innopsys InnoSca n 1100AL and analyze d usi ng Mapix (Innopsy s). Yes/ no binding was determined by si x posi tive replica te sp ots in three replica te exp eriments. […]
2.2 Small molecule Library […]
descr iption for Compounds printed in the amino aci d/small molecu le array for this st udy are list ed in […]
5.2 Small molecule array with “Map”
The array co nsi sts of triplica te su b-arrays of amino aci ds and sm all moleucl es (24 rows x 10 co lumns) with 400μm sp ot sp aci ng (ce ntre to ce ntre) with a minimum sp ot si ze of 100μm . Each sa mple is printed si x times, with each of the 3 su b-arrays incl uding at least Array layo ut si x negative co ntrol sa mples (print so lution only) and a posi tive co ntrol sa mples […]
Posi tive co ntrols provi de proof of su cce ssf ul immobiliza tion of the amine reagents and provi des for orientation for analysi s.
Sample Arrays are quality co ntrolled by a range of measu res. 1. Each printed array is post print identifica tion sca nned to co nfirm deposi tion of the sa mples on the array su rface prior to neutraliza tion and quality of the remaining sl ide su rface . 2. Post neutralize d sl ides are sca nned again to monitor co ntrol for remaining autofluoresce nce .
1. 6. Detector and Data Processing
Sca nning reso lution: […]
Sca n powers: Low lase r power. […]
analysi s Innopsys MAPIX.

[2] = tested on: H. pylori PMSS1 ΔtlpA; test: Temporal chemotaxis assay (direction changes), ΔtlpA mutant; format: cell-based, Helicobacter pylori; details: ligands 0.1-10 mM, controls 50 μM dipyridyl, 10 mM HCl
Protocol: Cultures of H. pylori PMSS1 WT and ΔtlpA strains were grown overnight, back-diluted, and then incubated until an OD600 of 0.12 to 0.15 was reached. Cultures were treated with water (Mock) or various concentrations of compounds, as indicated. For panels C and E, the pH of cysteine, thiamine, malic acid, and α-ketoglutarate stocks was adjusted using NaOH to match the pH of the water used for the untreated control. The cells were immediately filmed, and direction changes were counted over a 3-s swimming period in at least 100 cells per treatment from 3 biological replicates. Data are normalized to the values for the untreated control for each strain, as described in Materials and Methods. Error bars represent the standard errors of the means. *, P < 0.05; **, P < 0.01; ***, P < 0.001 (comparisons to the untreated control per strain using two-way ANOVA with Dunnett’s multiple-comparison test).
To determine if chemoattractant responses toward arginine, fumarate, and cysteine were TlpA dependent, the same tracking experiments were repeated with a mutant lacking tlpA (ΔtlpA).
Swimming behavior assays were done with H. pylori PMSS1 strains grown in BB10 as described above. Cultures grown overnight were diluted to an optical density at 600 nm (OD600) of 0.1 in fresh BB10 and then incubated with shaking as described above until an OD600 of 0.12 to 0.15 was reached. […] The number of direction changes in a bacterial swimming trajectory was enumerated over a 3-s interval to determine whether each putative ligand is sensed as an attractant or repellent or elicits no response ([20], [25][–][30]). […] Each control is sensed by chemoreceptors other than TlpA ([24], [25], [29], [31]). The pH of BB10 upon treatment was independently assessed using a Denver Instruments pH meter. Prior to realizing that chemotactic responses may be due to medium acidification, we resuspended all ligands in pure water. Therefore, to be able to compare the results to those of previous experiments, we continued resuspending acidified ligands in pure water and then adjusting the pH of the resuspended ligand using NaOH. Cultures were filmed immediately after ligand addition at a ×400 magnification using a Hamamatsu C4742-95 digital camera with μManager software (version 1.4.22), mounted on a Nikon Eclipse E600 phase-contrast microscope. For the competition chemotaxis assay, cultures of H. pylori and ligands were prepared as described above. However, 1 min after the addition of a nonchemoactive ligand at a final concentration of 10 mM, a chemoactive ligand was added at a final concentration of 10 mM, and the cultures were then filmed as described above. Videos were relabeled to blind the observer to the strain identity. For each sample, >100 3-s-long bacterial tracks from three independent cultures were analyzed manually to identify stops followed by direction changes. Data for all biological replicates under each condition were combined, and the average number of direction changes in 3 s and the standard error of the mean were calculated. For each strain, data were normalized to the values for the untreated control under each experimental condition. Statistical analysis of the data for treated versus untreated samples was performed using two-way analysis of variance (ANOVA) and Dunnett’s multiple-comparison test.

## N=C(N)NCCC[C@H](N)C(=O)O [Arginine, L-arginine monohydrochloride]
[1]
  Array result: +
[2]
  Chemotactic response of ΔtlpA mutant: failed to exhibit a chemotactic response

## N[C@@H](CS)C(=O)O [Cysteine, L-cysteine hydrochloride monohydrate]
[1]
  Array result: +/−
[2]
  Chemotactic response of ΔtlpA mutant: failed to exhibit a chemotactic response

## O=C(O)/C=C/C(=O)O [Fumarate, sodium fumarate]
[1]
  Array result: +
[2]
  Chemotactic response of ΔtlpA mutant: failed to exhibit a chemotactic response

## N[C@H]1C(O)O[C@H](CO)[C@@H](O)[C@@H]1O (stereo partly drawn) [Glucosamine, D(+)-glucosamine hydrochloride]
[1]
  Array result: +

## O=C(O)C[C@H](O)C(=O)O [Malic acid, L-malic acid]
[1]
  Array result: +/−

## Cc1ncc(C[n+]2csc(CCO)c2C)c(N)n1 [Thiamine, thiamine hydrochloride]
[1]
  Array result: +/−
